Values joined by “and” are separate entries in the source; they are usually repeats but may differ in a detail not shown here. Equal entries are not always repeated. Where two headings read alike, the source gives them in different places.
How the values were obtained:
Assay type in all cases: biochemical
[1] = biological target: T1, human MMP-2 (amino acids 1-660) (Homo sapiens, UniProt P08253); experiment: MMP dose response assay for determining IC50, MMP-2; conditions: recombinant enzyme, fluorescent-quench substrate 100 nM; read-out: MMP-2
T1 construct: human MMP-2 (amino acids 1-660); made in house
T1 sequence (P08253 110-660): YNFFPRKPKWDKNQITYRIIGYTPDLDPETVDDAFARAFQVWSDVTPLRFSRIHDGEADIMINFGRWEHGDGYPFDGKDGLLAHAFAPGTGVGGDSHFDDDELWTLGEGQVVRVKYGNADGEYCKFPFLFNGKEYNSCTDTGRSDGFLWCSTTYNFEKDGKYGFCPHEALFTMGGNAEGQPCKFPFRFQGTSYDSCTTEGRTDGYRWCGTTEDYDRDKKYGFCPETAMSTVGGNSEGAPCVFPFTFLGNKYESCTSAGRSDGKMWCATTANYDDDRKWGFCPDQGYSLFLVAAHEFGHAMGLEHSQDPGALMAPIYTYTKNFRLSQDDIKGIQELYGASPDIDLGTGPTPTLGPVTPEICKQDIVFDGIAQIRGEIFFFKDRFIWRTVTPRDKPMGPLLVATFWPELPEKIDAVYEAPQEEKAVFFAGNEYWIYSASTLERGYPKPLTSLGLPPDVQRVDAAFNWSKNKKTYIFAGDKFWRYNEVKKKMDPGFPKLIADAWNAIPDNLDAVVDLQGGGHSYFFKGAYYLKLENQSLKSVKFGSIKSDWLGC
In short: (§1)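 Recombinant enzymes in 50 mM HEPES pH 7.4, 10 mM CaCl2, 0.05% Brij-35, at empirically set levels keeping activity linear, preincubated 1 h at room temperature with compound in triplicate. Fluorescence-quench peptide substrate (Eu/QSY7) added at 100 nM final. Background-subtracted signal expressed as percent of DMSO control for IC50.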

[2] = biological target: T2, human MMP-1 (amino acids 100-262) (Homo sapiens, UniProt P03956); experiment: MMP dose response assay for determining IC50, MMP-1; conditions: recombinant catalytic domain, fluorescent-quench substrate 100 nM
T2 construct: human MMP-1 (amino acids 100-262); made in house
T2 sequence (P03956 100-262): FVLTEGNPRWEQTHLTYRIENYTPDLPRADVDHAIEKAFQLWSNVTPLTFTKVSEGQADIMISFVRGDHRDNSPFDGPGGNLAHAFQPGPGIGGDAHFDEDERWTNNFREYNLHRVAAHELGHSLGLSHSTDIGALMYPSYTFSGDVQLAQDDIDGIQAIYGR
Procedure: MMP Dose Response Assay for Determining IC50
The following method was used for determining IC50 values of different inhibitor compounds against multiple MMP enzymes. Frozen stocks of recombinantly produced MMPs were prepared in assay buffer (50 mM HEPES pH 7.4, 10 mM CaCl2, 0.05% Brij-35). […] Enzyme concentrations in the assay were determined empirically and set such that proteolytic activity was maintained in a linear range over the time-course of the experiment. […] Each concentration for each test compound was tested in triplicate. MMP enzymes were equilibrated with compounds for 1 hour at room temperature, then a fluorescent-quench substrate (Acetyl-Cys(Eu)-Pro-Leu-Gly-Leu-Lys-(QSY7)-Ala-Arg-amide) was added to a final concentration of 100 nM. […] Data was analyzed by first calculating average background value from wells that contained only substrate, and this value was subtracted from the entire plate. The 100%, or maximum value, was determined by averaging control wells that contained enzyme, substrate and DMSO. For each well, the percent of control was calculated by dividing the well value by the average DMSO value obtained above.

[3] = biological target: T3, human MMP-9 (amino acids 107-446) (Homo sapiens, UniProt P14780); experiment: MMP dose response assay for determining IC50, MMP-9
T3 construct: human MMP-9 (amino acids 107-446); made in house
T3 sequence (P14780 107-446): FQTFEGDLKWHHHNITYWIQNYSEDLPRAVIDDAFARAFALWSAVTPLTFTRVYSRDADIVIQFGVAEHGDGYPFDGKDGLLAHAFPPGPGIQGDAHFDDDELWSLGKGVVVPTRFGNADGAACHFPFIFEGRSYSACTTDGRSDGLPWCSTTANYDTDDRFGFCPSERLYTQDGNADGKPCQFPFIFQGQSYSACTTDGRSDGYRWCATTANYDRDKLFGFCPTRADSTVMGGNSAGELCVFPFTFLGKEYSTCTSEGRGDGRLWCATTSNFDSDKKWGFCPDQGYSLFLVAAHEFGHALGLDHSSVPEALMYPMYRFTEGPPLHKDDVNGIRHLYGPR
In short: as §1

[4] = recombinant enzyme, fluorescent-quench substrate 100 nM, read-out: MMP-9

Row | Compound | IC50 [1] | IC50 [2] | IC50 [3, 4] | IC50 ([3]; MMP-9 (nM))
1 | Cc1ccc(Oc2ccc(N(C[C@@H](NCc3ccccc3)C(=O)NO)S(C)(=O)=O)cc2)cc1 [Example 26, N-Hydroxy (2R)-2-benzylamino-3-{N-[4-(4-methylphenoxy)phenyl],N-methanesulfonylamino}propionamide] | 54.8 nM | > 10000 nM | 93.3 nM | 
2 | Cc1ccc(Oc2ccc(N(C[C@H](C(=O)NO)N3CCOCC3)S(C)(=O)=O)cc2)cc1 [Example 28, N-Hydroxy (2R)-3-{N-[4-(4-methylphenoxy)phenyl],N-methanesulfonylamino}-2-(morpholin-4-yl)propionamide] | 1320 nM | > 10000 nM | 295 nM | 
3 | Cc1ccc(Oc2ccc(N(C[C@H](Nc3cccc(Cl)c3)C(=O)NO)S(C)(=O)=O)cc2)cc1 [Example 44, N-Hydroxy (2S)-2-(3-chlorophenyl)amino-3-{N-[4-(4-methylphenoxy)phenyl],N-methanesulfonylamino}propionamide] | 333 nM | > 10000 nM | 19.7 nM | 
4 | CS(=O)(=O)N(C[C@H](O)C(=O)NO)c1ccc(Oc2ccccc2)cc1 [Example 12, N-Hydroxy (2S)-2-hydroxy-3-[N-(4-phenoxy)phenyl,N-methanesulfonylamino]propionamide] | 306 nM and 189 nM | > 10000 nM | 49.7 nM and 29.2 nM | 
5 | Cc1ccc(Oc2ccc(N(C[C@H](NC(=O)C(C)C)C(=O)NO)S(C)(=O)=O)cc2)cc1 [Example 4, N-Hydroxy (2S)-3-{N-[4-(4-methylphenoxy)phenyl],N-methanesulfonylamino}-2-(2-propylcarbonylamino)propionamide] | 53 nM and 86.7 nM | > 10000 nM | 4.89 nM and 6 nM | 
6 | Cc1ccc(Oc2ccc(N(C[C@H](Nc3ccc4ccccc4c3)C(=O)NO)S(C)(=O)=O)cc2)cc1 [Example 60, N-Hydroxy (2S)-3-{N-[4-(4-methylphenoxy)phenyl],N-methanesulfonylamino}-2-(naphthylen-2-yl)aminopropionamide] | 1440 nM and 875 nM | 5980 nM and > 10000 nM | 86.5 nM and 93.8 nM | 
7 | Cc1ccc(Oc2ccc(N(C[C@H](Nc3cccc(C(F)(F)F)c3)C(=O)NO)S(C)(=O)=O)cc2)cc1 [Example 45, N-Hydroxy (2S)-3-{N-[4-(4-methylphenoxy)phenyl],N-methanesulfonylamino}-2-(3-trifluorormethylphenyl)aminopropionamide] | 682 nM | 6000 nM | 58.3 nM | 
8 | CO[C@H](CN(c1ccc(Oc2ccc(C)cc2)cc1)S(C)(=O)=O)C(=O)NO [Example 17, N-Hydroxy (2R)-2-methoxy-3-{N-[4-(4-methylphenoxy)phenyl],N-methanesulfonylamino}propionamide] | 101 nM | > 10000 nM |  | 12.7 nM
9 | CCS(=O)(=O)N(C[C@H](O)C(=O)NO)c1ccc(Oc2ccc(C)cc2)cc1 [Example 20, N-Hydroxy (2S)-2-hydroxy-3-{N-[4-(4-methylphenoxy)phenyl],N-ethylsulfonylamino}propionamide] | 115 nM and 169 nM | > 10000 nM | 21.4 nM and 33.6 nM | 
10 | Cc1ccc(Oc2ccc(N(C[C@H](NCc3ccccc3)C(=O)NO)S(C)(=O)=O)cc2)cc1 [Example 25, N-Hydroxy (2S)-2-benzylamino-3-{N-[4-(4-methylphenoxy)phenyl],N-methanesulfonylamino}propionamide] | 202 nM | > 10000 nM | 7.16 nM | 
11 | Cc1ccc(Oc2ccc(N(C[C@H](Nc3ccc4[nH]ccc4c3)C(=O)NO)S(C)(=O)=O)cc2)cc1 [Example 40, N-Hydroxy (2S)-2-(indol-5-yl)amino-3-{N-[4-(4-methylphenoxy)phenyl],N-methanesulfonylamino}propionamide] | 30.8 nM and 14.7 nM | 6410 nM and 8830 nM | 1 nM and 0.64 nM | 
12 | Cc1ccc(Oc2ccc(N(C[C@H](N[C@H](C)c3ccccc3)C(=O)NO)S(C)(=O)=O)cc2)cc1 [Example 46, N-Hydroxy (2S)-3-{N-[4-(4-methylphenoxy)phenyl],N-methanesulfonylamino}-2-[(1R)-1-phenyl-1-ethyl]aminopropionamide] | 24.1 nM | > 10000 nM | 1.54 nM | 
13 | Cc1ccc(Oc2ccc(N(C[C@@H](NC(C)C)C(=O)NO)S(C)(=O)=O)cc2)cc1 [Example 24, N-Hydroxy (2R)-3-{N-[4-(4-methylphenoxy)phenyl],N-methanesulfonylamino}-2-(2-propyl)aminopropionamide] | 187 nM and 168 nM | > 10000 nM | 37.8 nM and 24.9 nM | 
14 | Cc1ccc(Oc2ccc(N(C[C@H](N)C(=O)NO)S(C)(=O)=O)cc2)cc1 [Example 29, N-Hydroxy (2S)-2-amino-3-{N-[4-(4-methylphenoxy)phenyl],N-methanesulfonylamino}propionamide] | 670 nM | > 10000 nM | 120 nM | 

Now from value to compound, other results behind:

Row | IC50 [1] | IC50 [2] | IC50 [3, 4] | Compound | IC50 ([3]; MMP-9 (nM))
15 | 3.76 nM and 1.02 nM | > 10000 nM | 0.72 nM and 0.17 nM | CS(=O)(=O)N(C[C@@H](C(=O)NO)N1Cc2ccccc2C1)c1ccc(Oc2ccc(C(F)(F)F)cc2)cc1 [Example 72, N-Hydroxy (2S)-2-(isoindolin-2-yl)-3-{N-[4-(4-trifluoromethylphenoxy)phenyl],N-methanesulfonylamino}propionamide] | 
16 | 17.7 nM | > 10000 nM | 3.86 nM | CN(C)[C@H]1CCN([C@@H](CN(c2ccc(Oc3ccc(C(F)(F)F)cc3)cc2)S(C)(=O)=O)C(=O)NO)C1 [Example 74, N-Hydroxy (2S)-2-[(3S)-3-N,N-dimethylaminopyrrolidin-1-yl]-3-{N-[4-(4-trifluoromethylphenoxy)phenyl],N-methanesulfonylamino}propionamide] | 
17 | 4.76 nM and 4.37 nM | > 10000 nM | 6.52 nM and 8.51 nM | CS(=O)(=O)N(C[C@@H](C(=O)NO)N1CCN(C(=O)OCc2ccccc2)CC1)c1ccc(Oc2ccc(C(F)(F)F)cc2)cc1 [Example 67, N-Hydroxy (2S)-2-[(4-benzyloxycarbonyl)piperazin-1-yl]-3-{N-[4-(4-trifluoromethylphenoxy)phenyl],N-methanesulfonylamino}propionamide] | 
18 | 1.57 nM and 4.93 nM and 10.7 nM | 8550 nM and > 10000 nM | 0.66 nM and 1.45 nM and 3.56 nM | CS(=O)(=O)N(C[C@@H](C(=O)NO)N1CCC(O)CC1)c1ccc(Oc2ccc(C(F)(F)F)cc2)cc1 [Example 71, N-Hydroxy (2S)-2-(4-hydroxypiperidin-1-yl)-3-{N-[4-(4-trifluoromethylphenoxy)phenyl],N-methanesulfonylamino}propionamide] | 
19 | 15.2 nM and 21.5 nM | > 10000 nM | 2.18 nM and 3.16 nM | CN(C)[C@@H]1CCN([C@@H](CN(c2ccc(Oc3ccc(C(F)(F)F)cc3)cc2)S(C)(=O)=O)C(=O)NO)C1 [Example 75, N-Hydroxy (2S)-2-[(3R)-3-N,N-dimethylaminopyrrolidin-1-yl]-3-{N-[4-(4-trifluoromethylphenoxy)phenyl],N-methanesulfonylamino}propionamide] | 
20 | 11.3 nM | > 10000 nM | 7.32 nM | COC[C@@H]1CCCN1[C@@H](CN(c1ccc(Oc2ccc(C(F)(F)F)cc2)cc1)S(C)(=O)=O)C(=O)NO [Example 82, N-Hydroxy (2S)-2-[(2S)-2-methoxymethylpyrrolidin-1-yl]-3-{N-[4-(4-trifluoromethylphenoxy)phenyl],N-methanesulfonylamino}propionamide] | 
21 | 38.9 nM | > 10000 nM | 37.1 nM | CS(=O)(=O)N(C[C@@H](C(=O)NO)N1CCC(O)(c2ccc(Br)cc2)CC1)c1ccc(Oc2ccc(C(F)(F)F)cc2)cc1 [Example 79, N-Hydroxy (2S)-2-[4-(4-bromophenyl)-4-hydroxypiperidin-1-yl]-3-{N-[4-(4-trifluoromethylphenoxy)phenyl],N-methanesulfonylamino}propionamide] | 
